System: patients with advanced solid tumors
Assay: phase I dose escalation: safety, DLT, MTD, RP2D (CTCAE v. 5)
Type: in vivo
Source text: Subsequent dosing cohorts were enrolled using a standard 3 + 3 design.
If any patient in any cohort of three patients developed a DLT during cycle 1, an additional three patients were recruited to expand the cohort to up to six evaluable patients. If two or more patients in any expanded cohort developed a DLT, this dose was considered non-tolerated, and dose escalation was discontinued. The MTD was defined as the highest dose level for which no more than one of six patients experienced a DLT.
Patients were continuously evaluated for adverse events throughout the study using the Common Terminology Criteria of Adverse Events (CTCAE v. 5). The patients underwent a clinical history and physical examination, an ECOG PS, a complete blood count (CBCs), chemistry, coagulation studies, urinalysis, a serum pregnancy test (as applicable), a triplicate ECG, an ophthalmology examination, and baseline tumor assessment at screening. During cycle 1, weekly history and physical examination, CBC, chemistry, coagulation parameters, urinalysis, and triplicate ECGs were performed; in subsequent cycles, weekly labs were limited to a CBC. Repeat ophthalmology examinations were performed at cycle 3, day 1, and at the end of treatment. Repeat tumor assessment was performed every 2 cycles (6 weeks) in accordance with RECIST 1.1.

[1] = 4:3 intermittent dosing schedule, all grades

In the case of `CC(C)[C@H](N)C(=O)SCC/C=C/[C@@H]1CC(=O)NCc2nc(cs2)C(=O)NC(C)(C)C(=O)N[C@@H](C(C)C)C(=O)O1` [OKI-179, Bocodepsin], the “TEAE: Hypokalaemia” value (4:3, 350 mg (n = 3), G3) is reported as 0 n (%), the “TEAE: Muscular weakness” value (4:3, 350 mg (n = 3), G3) is reported as 0 n (%) and the “TEAE: Nasal congestion” value (4:3, 350 mg (n = 3), G3) is reported as 0 n (%). The “TEAE: Nausea” value (4:3, 350 mg (n = 3), G3) was 0 n (%), the “TEAE: Platelet count decreased” value (4:3, 350 mg (n = 3), G3) was 0 n (%) and the “TEAE: Proteinuria” value (4:3, 350 mg (n = 3), G3) was 0 n (%). For the same compound, the “TEAE: Pyrexia” value (4:3, 350 mg (n = 3), G3) was 0 n (%), the “TEAE: Vomiting” value (4:3, 350 mg (n = 3), G3) was 0 n (%) and the “TEAE: Weight decreased” value (4:3, 350 mg (n = 3), G3) was 0 n (%). For the same compound, the “TEAE: Anemia” value (4:3, 450 mg (n = 6), G1) was 0 n (%), the “TEAE: Back pain” value (4:3, 450 mg (n = 6), G1) was 2 (33) n (%) and the “TEAE: Cough” value (4:3, 450 mg (n = 6), G1) was 1 (17) n (%). For the same compound, the “TEAE: Decreased appetite” value (4:3, 450 mg (n = 6), G1) was 1 (17) n (%), the “TEAE: Diarrhea” value (4:3, 450 mg (n = 6), G1) was 0 n (%) and the “TEAE: Dyspnea” value (4:3, 450 mg (n = 6), G1) was 0 n (%). The “TEAE: ECG QT prolonged” value (4:3, 450 mg (n = 6), G1) was 1 (17) n (%), the “TEAE: Fatigue” value (4:3, 450 mg (n = 6), G1) was 0 n (%) and the “TEAE: Headache” value (4:3, 450 mg (n = 6), G1) was 1 (17) n (%). For the same compound, the “TEAE: Hypokalaemia” value (4:3, 450 mg (n = 6), G1) was 0 n (%), the “TEAE: Muscular weakness” value (4:3, 450 mg (n = 6), G1) was 0 n (%) and the “TEAE: Nausea” value (4:3, 450 mg (n = 6), G1) was 2 (33) n (%). The “TEAE: Platelet count decreased” value (4:3, 450 mg (n = 6), G1) was 1 (17) n (%), the “TEAE: Proteinuria” value (4:3, 450 mg (n = 6), G1) was 0 n (%) and the “TEAE: Pyrexia” value (4:3, 450 mg (n = 6), G1) was 1 (17) n (%). The “TEAE: Vomiting” value (4:3, 450 mg (n = 6), G1) was 1 (17) n (%), the “TEAE: Weight decreased” value (4:3, 450 mg (n = 6), G1) was 1 (17) n (%) and the “TEAE: Anemia” value (4:3, 450 mg (n = 6), G2) was 0 n (%). For the same compound, the “TEAE: Back pain” value (4:3, 450 mg (n = 6), G2) was 0 n (%), the “TEAE: Cough” value (4:3, 450 mg (n = 6), G2) was 0 n (%) and the “TEAE: Decreased appetite” value (4:3, 450 mg (n = 6), G2) was 1 (17) n (%). The “TEAE: Diarrhea” value (4:3, 450 mg (n = 6), G2) was 0 n (%), the “TEAE: Dyspnea” value (4:3, 450 mg (n = 6), G2) was 0 n (%) and the “TEAE: ECG QT prolonged” value (4:3, 450 mg (n = 6), G2) was 0 n (%). The “TEAE: Fatigue” value (4:3, 450 mg (n = 6), G2) was 0 n (%), the “TEAE: Headache” value (4:3, 450 mg (n = 6), G2) was 0 n (%) and the “TEAE: Hypokalaemia” value (4:3, 450 mg (n = 6), G2) was 1 (17) n (%). For the same compound, the “TEAE: Muscular weakness” value (4:3, 450 mg (n = 6), G2) was 0 n (%), the “TEAE: Nasal congestion” value (4:3, 450 mg (n = 6), G2) was 0 n (%) and the “TEAE: Nausea” value (4:3, 450 mg (n = 6), G2) was 3 (50) n (%). For the same compound, the “TEAE: Platelet count decreased” value (4:3, 450 mg (n = 6), G2) was 2 (33) n (%), the “TEAE: Proteinuria” value (4:3, 450 mg (n = 6), G2) was 3 (50) n (%) and the “TEAE: Pyrexia” value (4:3, 450 mg (n = 6), G2) was 0 n (%). For the same compound, the “TEAE: Vomiting” value (4:3, 450 mg (n = 6), G2) was 0 n (%), the “TEAE: Weight decreased” value (4:3, 450 mg (n = 6), G2) was 0 n (%) and the “TEAE: Anemia” value (4:3, 450 mg (n = 6), G3) was 2 (33) n (%). The “TEAE: Back pain” value (4:3, 450 mg (n = 6), G3) was 0 n (%), the “TEAE: Cough” value (4:3, 450 mg (n = 6), G3) was 0 n (%) and the “TEAE: Decreased appetite” value (4:3, 450 mg (n = 6), G3) was 0 n (%). The “TEAE: Diarrhea” value (4:3, 450 mg (n = 6), G3) was 0 n (%), the “TEAE: Dyspnea” value (4:3, 450 mg (n = 6), G3) was 0 n (%) and the “TEAE: ECG QT prolonged” value (4:3, 450 mg (n = 6), G3) was 1 (17) n (%). The “TEAE: Fatigue” value (4:3, 450 mg (n = 6), G3) was 1 (17) n (%), the “TEAE: Headache” value (4:3, 450 mg (n = 6), G3) was 0 n (%) and the “TEAE: Hypokalaemia” value (4:3, 450 mg (n = 6), G3) was 0 n (%). For the same compound, the “TEAE: Muscular weakness” value (4:3, 450 mg (n = 6), G3) was 1 (17) n (%), the “TEAE: Nasal congestion” value (4:3, 450 mg (n = 6), G3) was 0 n (%) and the “TEAE: Nausea” value (4:3, 450 mg (n = 6), G3) was 0 n (%). For the same compound, the “TEAE: Platelet count decreased” value (4:3, 450 mg (n = 6), G3) was 0 n (%), the “TEAE: Proteinuria” value (4:3, 450 mg (n = 6), G3) was 0 n (%) and the “TEAE: Pyrexia” value (4:3, 450 mg (n = 6), G3) was 0 n (%). For the same compound, the “TEAE: Vomiting” value (4:3, 450 mg (n = 6), G3) was 0 n (%), the “TEAE: Weight decreased” value (4:3, 450 mg (n = 6), G3) was 0 n (%) and the “TEAE: Anemia” value [1] was 40%. The “TEAE: Diarrhea” value [1] was 25%, the “TEAE: Fatigue” value [1] was 40% and the “TEAE: Nausea” value [1] was 63%. For the same compound, the “TEAE: Vomiting” value [1] was 30%, the “TEAE: anorexia” value [1] was 35% and the “TEAE: decreased platelet count” value [1] was 30%. For the same compound, the “grade 3 TEAE: anemia” value (4:3 schedule) was 25%, the “grade 3 TEAE: fatigue” value (4:3 schedule) was 15% and the “grade 3 TEAE: prolonged QT” value (4:3 schedule) was 15%. For the same compound, the “grade 1 or 2 nausea” value (4:3 schedule, 450 mg) was 83%, the “TEAE: Abdominal pain” value (5:2, 300 mg (N=6), All grades) was 1 (17) N (%) and the “TEAE: Anemia” value (5:2, 300 mg (N=6), All grades) was 2 (33) N (%).

— publication PMC10778198, “First-in-Human Dose-Escalation Study of the Novel Oral Depsipeptide Class I-Targeting HDAC Inhibitor Bocodepsin (OKI-179) in Patients with Advanced Solid Tumors” (Cancers, 2023)
